The structures appear in SMILES notation.

The values that follow come from patent publication EP0092173A1, “11-Beta-chlorosteroids, process for their preparation and pharmaceutical compositions containing them” (SCHERING AKTIENGESELLSCHAFT, priority 1982, dated 1983).

In assay [1] the test system is infantilen weiblichen Kaninchen. In words: Clauberg test for progestational (gestagenic) activity after oral administration. The settings on record: for McPhail: infantile female rabbits; for Schwellendosis (McPhail 1,5) für die gestagene Wirkung: minimum amount for a positive effect (McPhail 1,5). The format is in vivo. An excerpt:
Die gestagene Wirkung wurde im üblichen Clauberg-Test nach oraler Applikation an infantilen weiblichen Kaninchen ermittelt.
Die zur Erzielung eines positiven Effekts benötigte Mindestmenge wird durch den McPhail-Wert 1,5 ausgedrückt.
In der folgenden Tabelle werden die Ergebnisse des Tests zusmmengestellt.

Assay [2] addresses Androgen-Rezeptor (Homo sapiens, UniProt P10275). In words: Androgen receptor test (competition factor). The settings on record: assessment in words, based on the competition factor. The format is binding.

Androgen-Rezeptor, sequence (P10275 whole entry): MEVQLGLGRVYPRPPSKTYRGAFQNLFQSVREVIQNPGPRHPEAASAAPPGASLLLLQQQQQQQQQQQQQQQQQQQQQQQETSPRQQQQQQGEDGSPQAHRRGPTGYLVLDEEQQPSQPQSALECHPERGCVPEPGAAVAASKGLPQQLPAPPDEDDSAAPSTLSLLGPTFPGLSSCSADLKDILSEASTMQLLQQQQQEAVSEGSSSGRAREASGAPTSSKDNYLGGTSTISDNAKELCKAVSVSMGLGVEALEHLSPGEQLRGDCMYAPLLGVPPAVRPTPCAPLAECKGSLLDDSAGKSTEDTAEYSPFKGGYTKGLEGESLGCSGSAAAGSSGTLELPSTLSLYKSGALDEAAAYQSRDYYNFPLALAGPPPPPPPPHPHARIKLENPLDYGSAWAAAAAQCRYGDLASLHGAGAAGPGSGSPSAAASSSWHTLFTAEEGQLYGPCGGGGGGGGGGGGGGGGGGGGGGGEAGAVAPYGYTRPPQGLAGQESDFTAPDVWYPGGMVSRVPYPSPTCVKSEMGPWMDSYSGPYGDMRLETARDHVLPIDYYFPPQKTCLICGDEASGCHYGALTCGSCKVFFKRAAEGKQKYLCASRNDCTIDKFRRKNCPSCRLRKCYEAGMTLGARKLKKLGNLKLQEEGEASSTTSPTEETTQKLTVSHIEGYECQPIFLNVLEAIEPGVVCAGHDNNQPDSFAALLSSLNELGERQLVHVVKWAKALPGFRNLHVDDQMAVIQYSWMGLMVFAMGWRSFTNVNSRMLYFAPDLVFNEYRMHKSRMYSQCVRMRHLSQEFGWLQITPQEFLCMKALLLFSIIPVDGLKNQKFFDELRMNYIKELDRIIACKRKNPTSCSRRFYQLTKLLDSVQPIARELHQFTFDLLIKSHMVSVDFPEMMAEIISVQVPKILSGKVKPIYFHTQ

`CC[C@]12C[C@H](Cl)[C@H]3[C@@H](CCC4=CC(=O)CC[C@@H]43)[C@@H]1CC[C@@]2(O)C#CCl` [Verbindung A, 11ß-Chlor-17α-chlorethinyl-17ß-hydroxy-18-methyl-4-östren-3-on]: the McPhail is 1,9 in assay [1] (Dosis 0,01 mg), 3,3 in assay [1] (Dosis 0,1 mg), 3,0 in assay [1] (Dosis 0,03 mg) and 1,2 in assay [1] (Dosis 0,003 mg). The “Schwellendosis (McPhail 1,5) für die gestagene Wirkung” value in assay [1] is ~0,003 mg. Moreover, the “androgene Nebenwirkung” value in assay [2] was “nur eine ganz geringfügige androgene Nebenwirkung”.
As for `C#C[C@]1(O)CC[C@H]2[C@@H]3CCC4=CC(=O)CC[C@@H]4[C@H]3[C@@H](Cl)C[C@@]21CC` [Verbindung B, 11ß-Chlor-17α-ethinyl-17ß-hydroxy-18-methyl-4-östren-3-on, reference compound], the McPhail in assay [1] (Dosis 0,01 mg) was 1,4; in assay [1] (Dosis 0,03 mg), 2,5; in assay [1] (Dosis 0,003 mg) it was 1,1. Moreover, in assay [1], the “Schwellendosis (McPhail 1,5) für die gestagene Wirkung” value was ~0,01 mg. In addition, the “androgene Nebenwirkung” value in assay [2] was “noch schwach androgen wirksam”.
